system: 454973-116-R2-J3-PDC spheroids, viability, % test/control; test: Anticancer human tumor 454973-116-R2-J3-PDC patient-derived pancreatic carcinoma cell line growth inhibition [GQUAD]; conditions: second compound 3.16 µM; first compound 0.1 µM; hits give low values; spheroids with HUVEC and MSC
Source text: DNA G-quadruplex Stabilizer Agents in Combinations in Complex Spheroids
A high-throughput screen of multi-cell type tumor spheroids was designed to identify active combinations of DNA G-quadruplex stabilizer agents and targeted small molecules. Complex spheroids include a stromal component modeled by human endothelial cells (HUVEC) and fibroblasts modeled by human mesenchymal stem cells (MSCs). The concentration ranges selected for each drug and investigational agent were based upon clinically achievable concentrations if the clinical Cmax of the agent was known.
Compounds. The drugs and investigational agents: pidnarulex (CX-5461; NSC782164), APTO-253 (NSC789042), BRACO-19 (NSC847499), peposertib (NSC802822), ceralasertib (NSC780249), elimusertib (NSC800525), camonsertib (NSC841442), AZD-1390 (NSC803789), olaparib (NSC753686), talazoparib (NSC767125), ART-558 (NSC835418), sotorasib (NSC818433), MRTX-1133 (NSC836407), SN-38 (NSC673596), topotecan (NSC609699), etoposide (NSC141540), doxorubicin (NSC123127), gemcitabine (NSC613327), 5-fluorouracil (NSC19893), paclitaxel (NSC125973), vemurafenib (NSC761431), panobinostat (NSC761190), R-306465 (JNJ-16241199; NSC773264), adavosertib (NSC754352), TP-3654 (NSC805149), carboplatin (NSC241240), KSQ-4279 (NSC840948), and staurosporine (NSC755774) were obtained from the National Cancer Institute (NCI) Developmental Therapeutics Program Chemical Repository (34). The FDA-approved anticancer drug set is available from the NCI Developmental Therapeutics Program. […] The stock solutions were prepared in dimethyl sulfoxide (DMSO, Sigma-Aldrich, St. Louis, MO, cat. D2650) at 800-fold the tested concentration and stored at -70 degrees C prior to their use. All drugs and investigational agents were tested over a range starting from a high concentration at or near the clinical Cmax and decreasing in half-log increments. If the clinical Cmax for an agent had not been determined, the highest concentration tested was 10 microM.
2.3 Cell Culture. All cells were maintained in an incubator at 37 degrees C and 5% CO2 with 95% humidity. The PDC lines were cultured according to standard operating procedures established by the NCI PDMR. All PDCs were thawed and cultured in Matrigel-coated flasks prepared with a working solution of 1X Ham's F-12 nutrient mix, without supplementation (Invitrogen, cat. 11765054), 100 U/mL penicillin-streptomycin (Invitrogen, cat. 15140122), and 2.5% Matrigel (Corning Inc., cat. 354248) for the first three passages. The 857933-349-R-J2-PDC line was cultured in 6C/Colon 1B media, which includes advanced DMEM/F-12 (Thermo Fisher Scientific, cat. 12634028), 10 mM HEPES (Thermo Fisher Scientific, cat. 15630080), 1X GlutaMAX supplement (Thermo Fisher Scientific, cat. 35050061), 0.1 mg/mL primocin (InvivoGen, cat. ant-pm-2), 10% defined fetal bovine serum, heat inactivated (HyClone Laboratories Inc., cat. SH30070.03HI), 50% L-WRN conditioned media (ATCC, cat. CRL-3276), 1.25 mM N-Acetyl-L-cysteine (Sigma-Aldrich, cat. A9165), 10 mM nicotinamide (Sigma-Aldrich, cat. N0636), 1X B-27 supplement (Thermo Fisher Scientific, cat. 17504044), 1X N-2 supplement (Thermo Fisher Scientific, cat. 17502048), 10 microM Y-27632 dihydrochloride (Tocris Bioscience, cat. 1254), and 50 ng/mL human EGF recombinant protein (Thermo Fisher Scientific, cat. PHG0311). The 485176-168-R4-J1-PDC line was cultured in Panc media, which includes all 6C/Colon 1B media components plus 100 ng/mL human FGF-10 (Thermo Fisher Scientific, cat. 100-26), 500 nM SB-431542 (Selleckchem, cat. S1067), and gastrin (Tocris, cat. 3006).
[…]
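Also: spheroids exposed to compounds for seven days.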

First: COc1ccc([C@@H](O)c2cc(-c3ncnc4cc(N5CCOCC5)ccc34)c(F)cc2Cl)nn1 + Cc1cnc(CNC(=O)c2c(=O)c3ccc(N4CCCN(C)CC4)nc3n3c2sc2ccccc23)cn1
Second: O=C(c1cc(Cc2n[nH]c(=O)c3ccccc23)ccc1F)N1CCN(C(=O)C2CC2)CC1 + Cc1cnc(CNC(=O)c2c(=O)c3ccc(N4CCCN(C)CC4)nc3n3c2sc2ccccc23)cn1
The viability, T/C of the first is lower: 54.3% for the first, 69.1% for the second.

same assay, conditions: second compound 3.16 µM; first compound 0.316 µM; hits give low values; spheroids with HUVEC and MSC

Compared with `CC1COCCN1c1cc(C2(O)CC3CCC(C2)O3)c2cnn(-c3ccn[nH]3)c2n1` (stereo unspecified) + Cc1cnc(CNC(=O)c2c(=O)c3ccc(N4CCCN(C)CC4)nc3n3c2sc2ccccc23)cn1, `O=C(c1cc(Cc2n[nH]c(=O)c3ccccc23)ccc1F)N1CCN(C(=O)C2CC2)CC1` + Cc1cnc(CNC(=O)c2c(=O)c3ccc(N4CCCN(C)CC4)nc3n3c2sc2ccccc23)cn1 is higher in viability, T/C: 31.6% for the first, 64% for the second.

`COc1ccc([C@@H](O)c2cc(-c3ncnc4cc(N5CCOCC5)ccc34)c(F)cc2Cl)nn1` + Cc1cnc(CNC(=O)c2c(=O)c3ccc(N4CCCN(C)CC4)nc3n3c2sc2ccccc23)cn1 was tested, and the viability, T/C was 61.2%.

same assay, conditions: second compound 3.16 µM; first compound 1 µM; hits give low values; spheroids with HUVEC and MSC

Compared with `CC1COCCN1c1cc(C2(O)CC3CCC(C2)O3)c2cnn(-c3ccn[nH]3)c2n1` (stereo unspecified) + Cc1cnc(CNC(=O)c2c(=O)c3ccc(N4CCCN(C)CC4)nc3n3c2sc2ccccc23)cn1, `O=C(c1cc(Cc2n[nH]c(=O)c3ccccc23)ccc1F)N1CCN(C(=O)C2CC2)CC1` + Cc1cnc(CNC(=O)c2c(=O)c3ccc(N4CCCN(C)CC4)nc3n3c2sc2ccccc23)cn1 is higher in viability, T/C: 23.4% for the first, 60.9% for the second.

Molecule `COc1ccc([C@@H](O)c2cc(-c3ncnc4cc(N5CCOCC5)ccc34)c(F)cc2Cl)nn1` + Cc1cnc(CNC(=O)c2c(=O)c3ccc(N4CCCN(C)CC4)nc3n3c2sc2ccccc23)cn1 has a viability, T/C of 41.5%.

same assay, conditions: second compound 3.16 µM; first compound 3.16 µM; hits give low values; spheroids with HUVEC and MSC

First: CC1COCCN1c1cc(C2(O)CC3CCC(C2)O3)c2cnn(-c3ccn[nH]3)c2n1 (stereo unspecified) + Cc1cnc(CNC(=O)c2c(=O)c3ccc(N4CCCN(C)CC4)nc3n3c2sc2ccccc23)cn1
Second: O=C(c1cc(Cc2n[nH]c(=O)c3ccccc23)ccc1F)N1CCN(C(=O)C2CC2)CC1 + Cc1cnc(CNC(=O)c2c(=O)c3ccc(N4CCCN(C)CC4)nc3n3c2sc2ccccc23)cn1
The viability, T/C of the first is lower: 18.2% for the first, 58.3% for the second.

For `COc1ccc([C@@H](O)c2cc(-c3ncnc4cc(N5CCOCC5)ccc34)c(F)cc2Cl)nn1` + Cc1cnc(CNC(=O)c2c(=O)c3ccc(N4CCCN(C)CC4)nc3n3c2sc2ccccc23)cn1, the viability, T/C was 39.7%.

same assay, conditions: second compound 3.16 µM; first compound 10 µM; hits give low values; spheroids with HUVEC and MSC

First: CC1COCCN1c1cc(C2(O)CC3CCC(C2)O3)c2cnn(-c3ccn[nH]3)c2n1 (stereo unspecified) + Cc1cnc(CNC(=O)c2c(=O)c3ccc(N4CCCN(C)CC4)nc3n3c2sc2ccccc23)cn1
Second: O=C(c1cc(Cc2n[nH]c(=O)c3ccccc23)ccc1F)N1CCN(C(=O)C2CC2)CC1 + Cc1cnc(CNC(=O)c2c(=O)c3ccc(N4CCCN(C)CC4)nc3n3c2sc2ccccc23)cn1
The viability, T/C of the first is lower: 7.65% for the first, 56.2% for the second.

`COc1ccc([C@@H](O)c2cc(-c3ncnc4cc(N5CCOCC5)ccc34)c(F)cc2Cl)nn1` + Cc1cnc(CNC(=O)c2c(=O)c3ccc(N4CCCN(C)CC4)nc3n3c2sc2ccccc23)cn1 showed a viability, T/C of 27.3%.

same assay, conditions: second compound 10 µM; first compound 0.0316 µM; hits give low values; spheroids with HUVEC and MSC

First: CC1COCCN1c1cc(C2(O)CC3CCC(C2)O3)c2cnn(-c3ccn[nH]3)c2n1 (stereo unspecified) + Cc1cnc(CNC(=O)c2c(=O)c3ccc(N4CCCN(C)CC4)nc3n3c2sc2ccccc23)cn1
Second: COc1ccc([C@@H](O)c2cc(-c3ncnc4cc(N5CCOCC5)ccc34)c(F)cc2Cl)nn1 + Cc1cnc(CNC(=O)c2c(=O)c3ccc(N4CCCN(C)CC4)nc3n3c2sc2ccccc23)cn1
The viability, T/C of the first is lower: 0.12% for the first, 0.28% for the second.

From PubChem BioAssay AID2060508 (Molecular Pharmacology Branch, DTP, NCI, 2025)
